# How the values were obtained:
# [1] = Evaluation of solubility of squarylium compound in toluene/cyclohexanone mixed solvent (Test Example 2); type: physicochemical; conditions: for Solubility: mixed solvent toluene/cyclohexanone=90/10 (vol %); for Solubility, measured dissolved amount: dissolved in 100 parts by mass of toluene/cyclohexanone=90/10 (vol %)
# Method: Solubility of the obtained squarylium compound B-12 in a mixed solvent of toluene/cyclohexanone (toluene/cyclohexanone=90/10 (vol %)) was confirmed. Specifically, a dissolved amount (% by mass) of squarylium compound B-12 dissolved in 100 parts by mass of the mixed solvent of toluene/cyclohexanone was measured.
# The solubility was evaluated by applying the obtained dissolved amount to the following standard.
# —Evaluation Standard of Solubility—
# B: 0.01% by mass or more and less than 0.1% by mass
# C: less than 0.01% by mass
# [2] = Measurement of maximal absorption wavelength of squarylium compound (Test Example 1); type: physicochemical; conditions: in chloroform, concentration 1×10^−6 mol/L, optical path length 10 mm
# Method: The obtained squarylium compound B-12 was dissolved in chloroform (concentration: 1×10^−6 mol/L), and the maximum absorption wavelength λmax of the squarylium compound B-12 was measured using a cell having an optical path length of 10 mm and using a spectrophotometer UV-1800PC (manufactured by Shimadzu Corporation).
structure (smiles),measurement,setting,value
CCCCC(CC)C(=O)NC1=CC(=[N+](/CCCC)c2ccc(C)cc2)/C=CC/1=C1\C(=O)C(c2ccc(N(CCCC)c3ccc(C)cc3)cc2NC(=O)C(CC)CCCC)=C1[O-] (stereo not shown) [A-1],Solubility,[1],A (0.1% by mass or more)
same,λmax (maximum absorption wavelength),[2],688 nm
CCCCC(CC)CN(c1ccc(C)cc1)c1ccc(C2=C([O-])/C(=C3C=C/C(=[N+](\CC(CC)CCCC)c4ccc(C)cc4)C=C/3NC(=O)C(C)(C)CC)C2=O)c(NC(=O)C(C)(C)CC)c1 (stereo not shown) [A-2],Solubility,[1],A (0.1% by mass or more)
same,λmax (maximum absorption wavelength),[2],690 nm
CCCCC(CC)CN(CC(CC)CCCC)c1ccc(C2=C([O-])/C(=C3/C=CC(=[N+](c4ccc(C)cc4)c4ccc(C)cc4)C=C3NC(=O)C(C)(C)CC)C2=O)c(NC(=O)C(C)(C)CC)c1 (stereo not shown) [A-4],Solubility,[1],A (0.1% by mass or more)
same,λmax (maximum absorption wavelength),[2],699 nm
CCCCC(CC)CN(CC(CC)CCCC)c1ccc(C2=C([O-])/C(=C3C=C/C(=[N+](\CC(CC)CCCC)c4ccc(C)cc4)C=C/3NC(=O)C(C)(C)CC)C2=O)c(NC(=O)C(C)(C)CC)c1 (stereo not shown) [A-5],Solubility,[1],A (0.1% by mass or more)
same,λmax (maximum absorption wavelength),[2],681 nm
CCCCc1ccc(N(CC(CC)CCCC)c2ccc(C3=C([O-])/C(=C4C=C/C(=[N+](\CC(CC)CCCC)c5ccc(CCCC)cc5)C=C/4NC(=O)C(C)(C)CC)C3=O)c(NC(=O)C(C)(C)CC)c2)cc1 (stereo not shown) [A-19],Solubility,[1],A (0.1% by mass or more)
same,λmax (maximum absorption wavelength),[2],687 nm
CCCCc1ccc(N(CC(CC)CCCC)c2ccc(C3=C([O-])/C(=C4C=C/C(=[N+](\CC(CC)CCCC)c5ccc(CCCC)cc5)C=C/4NC(=O)c4c(C)cc(C)cc4C)C3=O)c(NC(=O)c3c(C)cc(C)cc3C)c2)cc1 (stereo not shown) [A-20],Solubility,[1],A (0.1% by mass or more)
same,λmax (maximum absorption wavelength),[2],696 nm
CCCCc1ccc(N(CC(CC)CCCC)c2ccc(C3=C([O-])/C(=C4C=C/C(=[N+](\CC(CC)CCCC)c5ccc(CCCC)cc5)C=C/4NC(=O)C(F)(F)F)C3=O)c(NC(=O)C(F)(F)F)c2)cc1 (stereo not shown) [A-22],Solubility,[1],A (0.1% by mass or more)
same,λmax (maximum absorption wavelength),[2],688 nm
CCCCC(CC)CN(c1ccc(C2=C([O-])/C(=C3C=C/C(=[N+](\CC(CC)CCCC)c4ccc(C)cc4C)C=C/3NC(=O)C(C)(C)CC)C2=O)c(NC(=O)C(C)(C)CC)c1)c1ccc(C)cc1C (stereo not shown) [A-26],Solubility,[1],A (0.1% by mass or more)
same,λmax (maximum absorption wavelength),[2],688 nm
CCCCc1ccc(N(CC(CC)CCCC)c2ccc(C3=C([O-])/C(=C4C=C/C(=[N+](\CC(CC)CCCC)c5ccc(CCCC)cc5)C=C/4NC(=O)c4ccccc4)C3=O)c(NC(=O)c3ccccc3)c2)cc1 (stereo not shown) [A-28],Solubility,[1],A (0.1% by mass or more)
same,λmax (maximum absorption wavelength),[2],695 nm
CCCCc1ccc(N(CC(CC)CCCC)c2ccc(C3=C([O-])/C(=C4C=C/C(=[N+](\CC(CC)CCCC)c5ccc(CCCC)cc5)C=C/4NC(=O)c4ccccc4C)C3=O)c(NC(=O)c3ccccc3C)c2)cc1 (stereo not shown) [A-29],Solubility,[1],A (0.1% by mass or more)
same,λmax (maximum absorption wavelength),[2],695 nm
CCCCc1ccc(N(CC(CC)CCCC)c2ccc(C3=C([O-])/C(=C4C=C/C(=[N+](\CC(CC)CCCC)c5ccc(CCCC)cc5)C=C/4NC(=O)c4ccc5ccccc5c4)C3=O)c(NC(=O)c3ccc4ccccc4c3)c2)cc1 (stereo not shown) [A-30],Solubility,[1],A (0.1% by mass or more)
same,λmax (maximum absorption wavelength),[2],697 nm
"CC(=O)NC1=CC(=[N+](/C)c2ccccc2)/C=CC/1=C1/C(=O)C(c2ccc(N(C)c3ccccc3)cc2NC(C)=O)=C1[O-] [C-1, reference compound]","Solubility, measured dissolved amount",[1],(<0.005% by mass
same,Solubility,[1],C (less than 0.01% by mass)
same,λmax (maximum absorption wavelength),[2],680 nm
"CC(=O)NC1=CC(=[N+](c2ccccc2)c2ccccc2)C=C/C1=C1/C(=O)C(c2ccc(N(c3ccccc3)c3ccccc3)cc2NC(C)=O)=C1[O-] [C-2, reference compound]","Solubility, measured dissolved amount",[1],(<0.005% by mass
same,Solubility,[1],C (less than 0.01% by mass)
same,λmax (maximum absorption wavelength),[2],737 nm
"Cc1ccc(N(C)c2ccc(C3=C([O-])/C(=C4C=C/C(=[N+](\C)c5ccc(C)cc5)C=C\4O)C3=O)c(O)c2)cc1 [C-3, reference compound]","Solubility, measured dissolved amount",[1],(<0.005% by mass
same,Solubility,[1],C (less than 0.01% by mass)
same,λmax (maximum absorption wavelength),[2],658 nm
"CCN(c1ccc(C)cc1)c1ccc(C2=C([O-])/C(=C3C=C/C(=[N+](\CC)c4ccc(C)cc4)C=C/3NC(=O)C(C)C)C2=O)c(NC(=O)C(C)C)c1 [C-4, reference compound]",Solubility,[1],B (0.01% by mass or more and less than 0.1% by mass)
same,Solubility in an organic solvent (in words),[1]; summary of Tables 1 to 5,exhibiting solubility in an organic solvent
same,λmax (maximum absorption wavelength),[2],685 nm
"CCCCN(c1ccccc1)c1ccc(C2=C([O-])/C(=C3C=C/C(=[N+](\CCCC)c4ccccc4)C=C\3NC(C)=O)C2=O)c(NC(C)=O)c1 [C-6, reference compound]","Solubility, measured dissolved amount",[1],(<0.01% by mass
same,Solubility,[1],C (less than 0.01% by mass)
same,λmax (maximum absorption wavelength),[2],681 nm
